Experimental data taken from patent publication US8288419B2, “Aminopyrazole derivatives” (Actelion Pharmaceuticals, Ltd, priority 2007, dated 2012).

Target: T1, recombinant human ALX receptor (Homo sapiens, UniProt P25090)
T1 construct: expressed in transfected cells; host or cells: HEK293 (HEK293-hALXR-Gα16)
T1 sequence (P25090 1-351): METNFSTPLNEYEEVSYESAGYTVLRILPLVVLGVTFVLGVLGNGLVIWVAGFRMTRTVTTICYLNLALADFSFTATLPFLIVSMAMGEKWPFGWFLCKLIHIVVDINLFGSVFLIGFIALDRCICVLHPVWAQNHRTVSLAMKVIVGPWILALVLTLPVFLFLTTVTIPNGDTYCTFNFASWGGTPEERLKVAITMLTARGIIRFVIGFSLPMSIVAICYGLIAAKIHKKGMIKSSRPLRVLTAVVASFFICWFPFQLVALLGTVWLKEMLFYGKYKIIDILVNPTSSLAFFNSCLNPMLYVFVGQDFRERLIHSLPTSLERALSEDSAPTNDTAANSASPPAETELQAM
Assay: Intracellular calcium measurements (FLIPR), ALX receptor agonistic activity
Type: cell-based
Settings: HEK293-hALXR-Gα16 cells, Fluo-4 calcium fluorescence, normalized to 10 nM WKYMVm
Method: The ALX receptor agonistic activity of the compounds of formula (I) is determined in accordance with the following experimental method.
Intracellular Calcium Measurements:
Cells expressing recombinant human ALX receptor and the G-protein Gα16 (HEK293-hALXR-Gα16) were grown to 80% confluency in Growing Medium (GM). […] Stock solutions of test compounds were made up at a concentration of 10 mM in DMSO, and serially diluted in AB to concentrations required for activation dose response curves. WKYMVm (Phoenix Peptides) was used as a reference agonist. A FLIPR384 instrument (Molecular Devices) was operated according to the manufacturer's standard instructions, adding 4 μl of test compound dissolved at 10 mM in DMSO and diluted prior to the experiment in assay buffer to obtain the desired final concentration. Changes in fluorescence were monitored before and after the addition of test compounds at lex=488 nm and lem=540 nm. Emission peak values above base level after compounds addition were exported after base line subtraction. Values were normalized to high-level control (WKYMVm compound, 10 nM final concentration) after subtraction of the base line value (AB addition). The program XLlfit 3.0 (IDBS) was used to fit the data to a single site dose response curve of the equation (A+((B−A)/(1+((C/x)^D)))) and to calculate the EC50 values.

| SMILES | EC50 |
| --- | --- |
| CC(F)(F)c1ccc(Cn2ccc(NC(=O)OCc3cccc(C(F)(F)F)c3)n2)o1 [Example 280, {1-[5-(1,1-Difluoro-ethyl)-furan-2-ylmethyl]-1H-pyrazol-3-yl}-carbamic acid 3-trifluoromethyl-benzyl ester] | 27 nM |
| CCc1ccccc1COC(=O)Nc1cnn(Cc2ccc(C(C)(F)F)o2)c1 [Example 314, {1-[5-(1,1-Difluoro-ethyl)-furan-2-ylmethyl]-1H-pyrazol-4-yl}-carbamic acid 2-ethyl-benzyl ester] | 27 nM |
| CC(=O)c1ccc(Cn2cc(NC(=O)c3ncoc3-c3ccc(C)cc3)cn2)o1 [Example 331, 5-p-Tolyl-oxazole-4-carboxylic acid [1-(5-acetyl-furan-2-ylmethyl)-1H-pyrazol-4-yl]-amide] | 85 nM |
| CC(=O)c1nc(Cn2cc(NC(=O)OCc3ccccc3Cl)cn2)cs1 [Example 409, [1-(2-Acetyl-thiazol-4-ylmethyl)-1H-pyrazol-4-yl]-carbamic acid 2-chloro-benzyl ester] | 805 nM |
| CC(=O)CCCCn1ccc(NC(=O)OCc2ccc(F)c(F)c2)n1 [Example 169, [1-(5-Oxo-hexyl)-1H-pyrazol-3-yl]-carbamic acid 3,4-difluoro-benzyl ester] | 363 nM |
| CC(=O)CCCCn1ccc(NC(=O)c2ncoc2-c2ccccc2)n1 [Example 179, 5-Phenyl-oxazole-4-carboxylic acid [1-(5-oxo-hexyl)-1H-pyrazol-3-yl]-amide] | 955 nM |
| CC(=O)c1ncc(Cn2cc(NC(=O)c3ncoc3-c3ccccc3)cn2)s1 [Example 437, 5-Phenyl-oxazole-4-carboxylic acid [1-(2-acetyl-thiazol-5-ylmethyl)-1H-pyrazol-4-yl]-amide] | 99 nM |
| CC(=O)c1nc(Cn2cc(NC(=O)OCc3ccccc3Cl)cn2)co1 [Example 466, [1-(2-Acetyl-oxazol-4-ylmethyl)-1H-pyrazol-4-yl]-carbamic acid 2-chloro-benzyl ester] | 34 nM |
| COCCc1cccc(-c2ocnc2C(=O)Nc2ccn(Cc3ccc(C(C)=O)o3)n2)c1 [Example 379, 5-[3-(2-Methoxy-ethyl)-phenyl]-oxazole-4-carboxylic acid [1-(5-acetyl-furan-2-ylmethyl)-1H-pyrazol-3-yl]-amide] | 18 nM |
| CC(=O)c1cccc(Cn2cc(NC(=O)c3ncoc3-c3ccccc3)cn2)n1 [Example 364, 5-Phenyl-oxazole-4-carboxylic acid [1-(6-acetyl-pyridin-2-ylmethyl)-1H-pyrazol-4-yl]-amide] | 809 nM |
| CC(F)(F)CCCCn1cc(NC(=O)c2ncoc2-c2ccccc2)cn1 [Example 204, 5-Phenyl-oxazole-4-carboxylic acid [1-(5,5-difluoro-hexyl)-1H-pyrazol-4-yl]-amide] | 195 nM |
| CC(=O)c1cccc(Cn2cc(NC(=O)OCc3ccccc3Cl)cn2)c1 [Example 366, [1-(3-Acetyl-benzyl)-1H-pyrazol-4-yl]-carbamic acid 2-chloro-benzyl ester] | 56 nM |
| CC(=O)CCCCn1cc(NC(=O)OC(C)c2ccccc2)cn1 (racemic) [Example 125, [1-(5-Oxo-hexyl)-1H-pyrazol-4-yl]-carbamic acid (RS)-1-phenyl-ethyl ester] | 69 nM |
| CC(=O)c1csc(Cn2cc(NC(=O)/C=C/c3ccc(C(F)(F)F)cc3)cn2)n1 [Example 389, (E)-N-[1-(4-Acetyl-thiazol-2-ylmethyl)-1H-pyrazol-4-yl]-3-(4-trifluoromethyl-phenyl)-acrylamide] | 79 nM |
| CC(=O)c1ccc(Cn2cc(NC(=O)c3nc(C(C)C)oc3-c3ccccc3)cn2)o1 [Example 424, 2-Isopropyl-5-phenyl-oxazole-4-carboxylic acid [1-(5-acetyl-furan-2-ylmethyl)-1H-pyrazol-4-yl]-amide] | 114 nM |
| CC(=O)c1ccc(Cn2ccc(NC(=O)/C=C/c3cccc(C(F)(F)F)c3F)n2)o1 [Example 45, (E)-N-[1-(5-Acetyl-furan-2-ylmethyl)-1H-pyrazol-3-yl]-3-(2-fluoro-3-trifluoromethyl-phenyl)-acrylamide] | 95 nM |
| CC(=O)c1ccc(Cn2ccc(NC(=O)c3nc(CN)oc3-c3ccccc3)n2)o1 [Example 390, 2-Aminomethyl-5-phenyl-oxazole-4-carboxylic acid [1-(5-acetyl-furan-2-ylmethyl)-1H-pyrazol-3-yl]-amide] | 727 nM |
| CC(=O)c1ccc(Cn2cc(NC(=O)c3ncoc3-c3cccc(C#N)c3)cn2)s1 [Example 397, 5-(3-Cyano-phenyl)-oxazole-4-carboxylic acid [1-(5-acetyl-thiophen-2-ylmethyl)-1H-pyrazol-4-yl]-amide] | 23 nM |
| CC(=O)c1cc(Cn2cc(NC(=O)OCc3ccccc3Cl)cn2)ccn1 [Example 407, [1-(2-Acetyl-pyridin-4-ylmethyl)-1H-pyrazol-4-yl]-carbamic acid 2-chloro-benzyl ester] | 58 nM |
| CC(=O)c1cncc(Cn2cc(NC(=O)OCc3ccccc3Cl)cn2)c1 [Example 382, [1-(5-Acetyl-pyridin-3-ylmethyl)-1H-pyrazol-4-yl]-carbamic acid 2-chloro-benzyl ester] | 401 nM |
| CC(=O)c1ccc(Cn2cc(NC(=O)c3ncoc3-c3cccc(C(F)(F)F)n3)cn2)o1 [Example 419, 5-(6-Trifluoromethyl-pyridin-2-yl)-oxazole-4-carboxylic acid [1-(5-acetyl-furan-2-ylmethyl)-1H-pyrazol-4-yl]-amide] | 66 nM |
| CC(=O)c1ccc(Cn2ccc(NC(=O)c3ncoc3-c3ccccc3)n2)s1 [Example 376, 5-Phenyl-oxazole-4-carboxylic acid [1-(5-acetyl-thiophen-2-ylmethyl)-1H-pyrazol-3-yl]-amide] | 74 nM |
| CC(F)(F)CCCCn1ccc(NC(=O)c2ncoc2-c2ccccc2)n1 [Example 202, 5-Phenyl-oxazole-4-carboxylic acid [1-(5,5-difluoro-hexyl)-1H-pyrazol-3-yl]-amide] | 899 nM |
| CC(=O)c1ccc(Cn2cc(NC(=O)c3ncoc3-c3ccnc(F)c3)cn2)o1 [Example 412, 5-(2-Fluoro-pyridin-4-yl)-oxazole-4-carboxylic acid [1-(5-acetyl-furan-2-ylmethyl)-1H-pyrazol-4-yl]-amide] | 179 nM |
| CC(=O)c1ccc(Cn2ccc(NC(=O)c3nc(C)oc3-c3cccc(OC(F)(F)F)c3)n2)s1 [Example 392, 2-Methyl-5-(3-trifluoromethoxy-phenyl)-oxazole-4-carboxylic acid [1-(5-acetyl-thiophen-2-ylmethyl)-1H-pyrazol-3-yl]-amide] | 237 nM |
| CC(=O)CCCCn1cc(NC(=O)c2ncoc2-c2ccccc2)cn1 [Example 152, 5-Phenyl-oxazole-4-carboxylic acid [1-(5-oxo-hexyl)-1H-pyrazol-4-yl]-amide] | 191 nM |
| COCc1nc(C(=O)Nc2cnn(Cc3ccc(C(C)=O)o3)c2)c(-c2ccccc2)o1 [Example 416, 2-Methoxymethyl-5-phenyl-oxazole-4-carboxylic acid [1-(5-acetyl-furan-2-ylmethyl)-1H-pyrazol-4-yl]-amide] | 61 nM |
